Measured values published in patent US9422308B2, “Derivatives of docosahexaenoylethanolamide and uses thereof” (The United States of America, as represented by the …, priority 2012, dated 2016).
Where “and” joins values, the source holds several entries; their conditions need not be identical. Identical values can stand only once.

Assays:
FAAH = molecular target: T1, FAAH (Homo sapiens, UniProt O00519); experiment: time course FAAH enzyme assay; format: in vitro ADME; settings: Conc. 1 mM, 0.1 U of FAAH, 37° C., pH=9.0
T1 sequence (O00519 1-579): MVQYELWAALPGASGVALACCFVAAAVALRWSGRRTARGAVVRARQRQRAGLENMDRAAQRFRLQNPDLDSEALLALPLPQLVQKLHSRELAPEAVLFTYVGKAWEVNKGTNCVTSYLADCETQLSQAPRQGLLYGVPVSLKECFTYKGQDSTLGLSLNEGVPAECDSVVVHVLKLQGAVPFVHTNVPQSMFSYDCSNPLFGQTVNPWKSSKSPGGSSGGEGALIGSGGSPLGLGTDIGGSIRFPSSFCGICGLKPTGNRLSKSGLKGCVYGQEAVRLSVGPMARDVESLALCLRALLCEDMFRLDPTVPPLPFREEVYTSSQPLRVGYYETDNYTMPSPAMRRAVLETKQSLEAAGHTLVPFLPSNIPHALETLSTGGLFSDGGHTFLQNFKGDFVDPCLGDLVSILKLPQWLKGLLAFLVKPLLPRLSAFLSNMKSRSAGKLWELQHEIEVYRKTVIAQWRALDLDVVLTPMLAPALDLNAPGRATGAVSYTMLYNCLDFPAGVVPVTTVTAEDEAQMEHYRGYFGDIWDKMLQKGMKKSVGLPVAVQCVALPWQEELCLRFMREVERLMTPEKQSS
Method: Method development: The signal was optimized for each compound by ESI positive or negative ionization mode. A MS2 SIM scan was used to optimize the precursor ion and a product ion analysis was used to identify the best fragment for analysis and to optimize the collision energy.
Analysis: Samples were analyzed by LC/MS/MS using a API 3000 coupled with an Shimadzu HPLC and a CTC PAL chilled autosampler, all […] controlled by Analyst software (ABI). After separation on a C18 reverse phase HPLC column (Agilent, Waters, or equivalent). Mobile phase A was 0.1% AcOH in water. Mobile phase B was 0.1% AcOH in methanol. The flow rate was 0.6 mL/min. The gradient program included a 0.5 min hold at 30% B (the starting conditions), followed by a gradient to 100% B over 2.5 min and a 1 min hold at 100% B. The column was then returned to starting conditions and equilibrated over 1.25 min.
Assay Protocol: Assays were performed at 37° C. at pH=9.0 and involved the use of 0.1 U of FAAH. […] Reaction was terminated after an appropriate time by using protein precipitation treatment with acetonitrile (3:1, v/v).

cortical neurons = experiment: neurite growth of embryonic mouse neurons (total neurite length/neuron, MAP2 immunostaining); format: cell-based; settings: for effect with respect to cortical neurite growth as compared to DHA: FIGS. 1, 2; for dosage at which activity is exhibited as compared to DHA and synaptamide: dosages 10^-5 nM to 10 nM, FIG. 1
Method: To obtain embryonic mouse neurons for analysis, pregnant female mice were killed by cervical dislocation after exposure to CO2 inhalation. Embryonic neurons were prepared from E18 or P0 mouse hippocampi or cortex and cultured as described previously (Calderon and Kim, J. Neurochem., 90(4):979-88 (2004), errata in J Neurochem., September; 90(6):1540 (2004)), with slight modification. Briefly, hippocampi or cotices were dissected and dissociated by a method using either 0.25% trypsin (Gibco Invitrogen Corporation, Grand Island, N.Y.) in Hank's balanced salt solution (HBSS) or papain (20-30 U/mL) in dissociation media containing cysteine at 37° C. for 15 min. After the dissociation solution was aspirated off, cells were washed with same volume of HBSS, suspended in neurobasal medium (Gibco) containing 2% B27 supplement (Gibco), 1% glutamine/glutamax mix (1:4) (Gibco), 100 U/ml penicillin (Gibco) and 100 μg/ml streptomycin (Gibco), and seeded on poly-D-lysine chambered slides (Lab-Tek, Naperville, Ill.) at a density of 30,000 cells/cm^2. On the second day after seeding, the cells were treated with fatty acids, synaptamide or one of Compounds 1-50 for 48 h. Docosahexaenoic acid (DHA) and oleic acid (OA) were complexed with fatty acid-free bovine serum albumin (BSA; Sigma, St Louis, Mo.) in the presence of α-tocopherol (Sigma) under an argon atmosphere and darkness to prevent oxidation of the fatty acids. The mixture was mixed with fresh Neurobasal medium containing B27 supplement, glutamine/glutamax mix and antibiotics. Final concentrations of α-tocopherol and BSA in the culture medium were 40 μM and 0.01%, respectively. Alternatively, DHA, OA, synaptamide, or one of Compounds 1-50 were dissolved in DMSO and applied directly together with α-tocopherol. In such case, the final concentration of DMSO is less than 0.005%. All stock solutions were aliquoted under argon and stored at −70° C.
Cells were fixed with […] (Sigma) in PBS (pH 7.4) for 30 min. After permeabilization with 0.1% Triton X-100 (Sigma), cells were blocked for 1 h at 37° C. with PBS containing 10% goat serum (Gibco), and then incubated with the primary antibody against microtubule-associated protein (MAP2, mouse monoclonal 1:250; Sigma). After washing with PBS, cells were incubated with the corresponding Cy2-, Cy3-conjugated secondary antibody (Jackson Immunoresearch Laboratories Inc., West Grove, Pa.). For the nuclear staining, 0.06% 4,6-Diamidino-2-Phenylindole (Sigma) was used. After immunostaining, images were collected using an inverted motorized 1×81 Olympus (Melville, N.Y.) and the neurite length was analyzed with Metamorph software (Molecular Devices Corporation, Downingtown, Pa.). To minimize bias, neurons were evaluated blindly without the knowledge of sample identity. Four to six fields/well were chosen at random and only non-clustered neurons were evaluated to ensure the precision of the measurements. From each well, over 100 neurons were evaluated at 20× magnification for total neurite length/neuron. The data were obtained from triplicate wells and the experiments were repeated at least three times.
FIG. 2 provides graphical results of the data shown in Table 2, expressed as total neurite length per neuron. FIG. 3 provides graphical results of these experiments for compounds 11-50 (having designations as provided in Table 1, above), expressed as relative neurite length as compared to untreated controls. FIG. 4 provides graphical results of these experiments for compounds 1-10 (having designations as provided in Table 1, above), as applied to hippocampal neurons.
An additional assay was performed in which Compounds (A8), 4(A10), and 7(A9) were applied at varying dosages (from 10^−5 nM to 10 nM; 10^−5 nM, 10^−4 nM, 10^−2 nM, 0.1 nM, 1 nM, and 10 nM) as compared to DHA, synaptamide, and oleic acid. Neurite growth was measured at each dosage. Results of this assay are provided at FIG. 1.

[1] = cortical neurons, 10 nM (FIG. 2), 48 h

SMILES: CCCCC/C=C\C/C=C\C/C=C\C/C=C\CCCC(=O)NCCO [AEA, anandamide]
- % remaining (FAAH; 0 min): 74%
- % remaining (FAAH; 30 min): 1%
- % remaining (FAAH; 60 min): 1%

SMILES: CC/C=C\C/C=C\C/C=C\C/C=C\C/C=C\C/C=C\CCC(=O)NCCCCO [Compound 2, (4Z,7Z,10Z,13Z,16Z,19Z)—N-(4-hydroxybutyl)docosa-4,7,10,13,16,19-hexaenamide]
- Neurite Length/Neuron (mean) (cortical neurons; [1]): 6.9 μm

SMILES: CC/C=C\C/C=C\C/C=C\C/C=C\C/C=C\C/C=C\CCC(=O)NCCCO [Compound 3, (4Z,7Z,10Z,13Z,16Z,19Z)—N-(3-hydroxypropyl)docosa-4,7,10,13,16,19-hexaenamide]
- Neurite Length/Neuron (mean) (cortical neurons; [1]): 3.8 μm

SMILES: CC/C=C\C/C=C\C/C=C\C/C=C\C/C=C\C/C=C\CCC(=O)NCCN1CCOCC1 [Compound 4, (4Z,7Z,10Z,13Z,16Z,19Z)—N-(2-morpholinoethyl)docosa-4,7,10,13,16,19-hexaenamide]
- Neurite Length/Neuron (mean) (cortical neurons; [1]): 20.8 μm
- effect with respect to cortical neurite growth as compared to DHA (cortical neurons; cortical neurons): superior effect
- dosage at which activity is exhibited as compared to DHA and synaptamide (cortical neurons): activity at significantly lower dosages

SMILES: CC/C=C\C/C=C\C/C=C\C/C=C\C/C=C\C/C=C\CCC(=O)NCCN(C)C [Compound 5, (4Z,7Z,10Z,13Z,16Z,19Z)—N-(2-(dimethylamino)ethyl)docosa-4,7,10,13,16,19-hexaenamide]
- Neurite Length/Neuron (mean) (cortical neurons; [1]): 6.7 μm

SMILES: CC/C=C\C/C=C\C/C=C\C/C=C\C/C=C\C/C=C\CCC(=O)NCCOC [Compound 6, (4Z,7Z,10Z,13Z,16Z,19Z)—N-(2-methoxyethyl)docosa-4,7,10,13,16,19-hexaenamide]
- Neurite Length/Neuron (mean) (cortical neurons; [1]): 9.1 μm

SMILES: CC/C=C\C/C=C\C/C=C\C/C=C\C/C=C\C/C=C\CCC(=O)NCCc1ccccc1 [Compound 7, (4Z,7Z,10Z,13Z,16Z,19Z)—N-phenethyldocosa-4,7,10,13,16,19-hexaenamide]
- Neurite Length/Neuron (mean) (cortical neurons; [1]): 41.8 μm
- effect with respect to cortical neurite growth as compared to DHA (cortical neurons; cortical neurons): superior effect
- dosage at which activity is exhibited as compared to DHA and synaptamide (cortical neurons): activity at significantly lower dosages

SMILES: CC/C=C\C/C=C\C/C=C\C/C=C\C/C=C\C/C=C\CCC(=O)NC(C)(C)CO [Compound 8, (4Z,7Z,10Z,13Z,16Z,19Z)—N-(1-hydroxy-2-methylpropan-2-yl)docosa-4,7,10,13,16,19-hexaenamide]
- Neurite Length/Neuron (mean) (cortical neurons; [1]): 4.5 μm

SMILES: CC/C=C\C/C=C\C/C=C\C/C=C\C/C=C\C/C=C\CCC(=O)N[C@@H](C)CO [Compound 9, (4Z,7Z,10Z,13Z,16Z,19Z)—N—((S)-1-hydroxypropan-2-yl)docosa-4,7,10,13,16,19-hexaenamide]
- Neurite Length/Neuron (mean) (cortical neurons; [1]): 9.6 μm

SMILES: CC/C=C\C/C=C\C/C=C\C/C=C\C/C=C\C/C=C\CCC(=O)N[C@H](C)CO [Compound 10, (4Z,7Z,10Z,13Z,16Z,19Z)—N—((R)-1-hydroxypropan-2-yl)docosa-4,7,10,13,16,19-hexaenamide]
- Neurite Length/Neuron (mean) (cortical neurons; [1]): 9.5 μm

SMILES: CC/C=C\C/C=C\C/C=C\C/C=C\C/C=C\C/C=C\CCC(=O)O [DHA, Docosahexaenoic acid, reference compound]
- Neurite Length/Neuron (mean) (cortical neurons; cortical neurons, DHA 100 nM (FIG. 2), 48 h): 14.5 μm

SMILES: CC/C=C\C/C=C\C/C=C\C/C=C\C/C=C\C/C=C\CCC(=O)NCCO [Synaptamide, Docosahexaenoylethanolamide]
- Neurite Length/Neuron (mean) (cortical neurons; [1]): 29.3 μm
- Neurite Length/Neuron, individual values (cortical neurons; cortical neurons, 10 nM (FIG. 2), 48 h, three individual values): 33.1 μm and 29.2 μm and 25.5 μm
- % remaining (FAAH; 0 min): 100%
- % remaining (FAAH; 30 min): 5%
- % remaining (FAAH; 60 min): 1%
